{
  "source": "patent US20100249408A1",
  "about": "“USE OF NOVEL COMPOUND HAVING AFFINITY FOR AMYLOID, AND PROCESS FOR PRODUCTION OF THE SAME” (NIHON MEDI-PHYSICS CO., LTD., priority 2007, published 2010)",
  "key": {"[1]": {"settings": "[125I]-labeled compounds, normal mice; cited from earlier work"}, "[2]": {"settings": "International Publication No. WO03/106439; cited from earlier work"}, "[3]": {"assay": "Partition coefficient based on the octanol extraction method (logPoctanol)", "settings": "octanol / 10 mmol/L phosphate buffer (pH 7.4), radioactivity count", "protocol": "10 μL each of the prepared sample solution was respectively added to 2 mL of octanol, further, 2 mL of 10 mmol/L phosphate buffer (pH 7.4) was added, and stirred for 30 seconds. […] Using the obtained radioactivity count, log Poctanol was calculated in accordance with the equation (2)."}, "[4]": {"assay": "Transferability into brain and clearance (Examples II-11, II-12, Comparative Example II-1)", "settings": "rats, intravenous injection, three animals", "protocol": "Using the Compounds 10 and 11, a time course change of radioactive accumulation in brain of male Wistar rats (7-week old) was measured.\nThe rats were sacrificed by bleeding from abdominal artery, and brains were removed and subjected to measurement of mass of brains and further subjected to measurement of radioactivity (hereinafter referred to as A in this Example) with a single channel analyzer (detector type: SP-20 manufactured by OHYO KOKEN KOGYO Co., Ltd.) 2, 5, 30 and 60 minutes after the injection. Also, radioactivity (hereinafter referred to as B in this Example) of the rest of the whole body was measured in the same manner as above. Using these measurement results, radioactive accumulation per unit weight of brain (% ID/g) at the respective time points were calculated in accordance with the following formula (4).\nThree animals were used for experiment at the respective time points."}, "[5]": {"molecular_target": "T1, intracerebral amyloid (aggregated Aβ1-42 injected into amygdaloid nucleus) (Homo sapiens, UniProt P05067)", "T1 construct": "Aβ1-42 (manufactured by Peptide Institute) was dissolved in phosphate buffer (pH 7.4); purchased Peptide Institute", "T1 sequence (P05067 672-713)": "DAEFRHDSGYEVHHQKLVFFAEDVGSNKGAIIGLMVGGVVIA", "assay": "ex vivo autoradiogram using rats of amyloid injected model (Examples II-13, II-14)", "design": "species or system male Wistar rat", "settings": "rat with Aβ1-42 amyloid suspension in one amygdaloid nucleus, tail vein, brain removed 60 minutes after injection", "protocol": "As a control, 2.5 μL of a phosphate buffered physiological saline solution (pH 7.4) was injected into an amygdaloid nucleus on the other side of the rat. The rats were examined 1 day after the injection of the amyloid suspension and the phosphate buffered physiological saline solution (pH 7.4).\n(4) Brain was removed 60 minutes after the injection to prepare a brain slice of 10 μm in thickness with a microtome (type: CM3050S, manufactured by LEICA)."}, "[6]": {"settings": "[11C]-labeled, rats; cited from earlier work"}},
  "note": "Like-named read-outs stand apart in the source and are kept apart here.",
  "data": [
    {"smiles": "CN(C)c1ccc(-c2nc3ccc(I)cc3o2)cc1", "note": "[IBOX, 6-iodo-2-[4′-(N,N-dimethylamino)phenyl]benzoxazole]", "values": [
      {"measurement": "Clearance from normal tissues", "setting": "[1]", "value": "insufficient in clearance from normal tissues"}
    ]},
    {"smiles": "CN(C)c1ccc(-c2cn3cc(I)ccc3n2)cc1", "note": "[IMPY, 6-iodo-2-[4′-(N,N-dimethylamino)phenyl]imidazo[1,2-a]pyridine]", "values": [
      {"measurement": "Result in reverse mutation test", "setting": "[2]", "value": "positive"}
    ]},
    {"smiles": "Oc1ccc(-c2cn3cccc([123I])c3n2)cc1", "note": "[Compound 11, [^123I]-2-(4′-hydroxyphenyl)-8-iodoimidazo[1,2-a]pyridine]", "values": [
      {"measurement": "logPoctanol value", "setting": "[3]", "value": 3.0},
      {"measurement": "Radioactive accumulation in brain per unit weight", "setting": "[4]; after 2 min.", "value": 0.65, "unit": "% ID/g"},
      {"measurement": "Radioactive accumulation in brain per unit weight", "setting": "[4]; after 5 min.", "value": 0.43, "unit": "% ID/g"},
      {"measurement": "Radioactive accumulation in brain per unit weight", "setting": "[4]; after 30 min.", "value": 0.09, "unit": "% ID/g"},
      {"measurement": "Radioactive accumulation in brain per unit weight", "setting": "[4]; after 60 min.", "value": 0.03, "unit": "% ID/g"},
      {"measurement": "Accumulation of radioactivity at intracerebral amyloid (ex vivo autoradiogram)", "setting": "[5]", "value": "a marked accumulation of radioactivity was observed in the amygdaloid nucleus on the side to which the amyloid suspension was injected"}
    ]},
    {"smiles": "CN(C)c1ccc(/C=C/c2ccc(I)cc2)cc1", "note": "[m-I-SB, (E)-4-dimethylamino-4′-iodostilbene]", "values": [
      {"measurement": "Clearance from normal tissues", "setting": "[1]", "value": "insufficient in clearance from normal tissues"}
    ]},
    {"smiles": "CN(C)c1ccc(-c2nc3ccc(I)cc3s2)cc1", "note": "[TZDM, 6-iodo-2-[4′-(N,N-dimethylamino)phenyl]benzothiazole]", "values": [
      {"measurement": "Clearance from normal tissues", "setting": "[1]", "value": "insufficient in clearance from normal tissues"}
    ]},
    {"smiles": "CC(=C(C#N)C#N)c1ccc2cc(N(C)CCF)ccc2c1", "note": "[FDDNP, 2-(1-{6-[(2-fluoroethyl)(methyl)amino]-2-naphthyl}ethylidene)malononitrile]", "values": [
      {"measurement": "Result in reverse mutation test", "setting": "[2]", "value": "positive"}
    ]},
    {"smiles": "CNc1ccc(/C=C/c2ccc(O)cc2)cc1", "note": "[SB-13, (E)-4-methylamino-4′-hydroxystilbene]", "values": [
      {"measurement": "Clearance from normal tissues", "setting": "[6]", "value": "it cannot be said that the clearance is sufficiently fast"}
    ]},
    {"smiles": "Oc1ccc(-c2cn3cc([123I])ncc3n2)cc1", "note": "[Compound 10, [^123I]-2-(4′-hydroxyphenyl)-6-iodoimidazo[1,2-a]pyrazine]", "values": [
      {"measurement": "logPoctanol value", "setting": "[3]", "value": 2.3},
      {"measurement": "Radioactive accumulation in brain per unit weight", "setting": "[4]; after 2 min.", "value": 0.62, "unit": "% ID/g"},
      {"measurement": "Radioactive accumulation in brain per unit weight", "setting": "[4]; after 5 min.", "value": 0.33, "unit": "% ID/g"},
      {"measurement": "Radioactive accumulation in brain per unit weight", "setting": "[4]; after 30 min.", "value": 0.08, "unit": "% ID/g"},
      {"measurement": "Radioactive accumulation in brain per unit weight", "setting": "[4]; after 60 min.", "value": 0.02, "unit": "% ID/g"},
      {"measurement": "Accumulation of radioactivity at intracerebral amyloid (ex vivo autoradiogram)", "setting": "[5]", "value": "a marked accumulation of radioactivity was observed in the amygdaloid nucleus on the side to which the amyloid suspension was injected"}
    ]}
  ]
}
